Measurements published in patent US12606528B2, “Methods and materials for inhibiting NF-kB activity” (University of Pittsburgh - Of the Commonwealth System of …, priority 2019, dated 2026).
Where two headings read alike, the source gives them in different places.

Experiments:
NF-κB = NF-κB assay: THP1-NF-κB-LUC cells, LPS-stimulated secreted luciferase; format: cell-based; settings: THP1-NF-κB-LUC cells, read-out: IC50 (NF-κB assay)
Procedure, shortened: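 THP1-NF-κB-LUC cells (25k/well) were pretreated with compounds for 2 h, then stimulated with LPS (10 ng/mL) for 18 h. Secreted luciferase was measured and normalized to vehicle, and IC50 was fitted from the concentration series.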

TNF release = assay: TNF assay: TNF release from LPS-stimulated human PBMCs (TNF ELISA); format: cell-based; settings: PBMC, read-out: IC50 (TNF assay)
Procedure, shortened: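 TNF ELISA on supernatants read-out; cells were 10k human PBMCs/well given LPS at 10 ng/mL for 18 h after a 2 h compound pre-incubation across a concentration series, with IC50 derived for suppression of TNF secretion.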

[1] = LPS-stimulated human PBMCs, TNF ELISA
[2] = compounds 2 hours before LPS (10 ng/mL) for 18 hours, secreted luciferase
[3] = human PBMCs, compounds 2 hours before LPS (10 ng/ml) for 18 hours, supernatant TNF ELISA

Compound	IC50 (NF-κB; LPS-stimulated)	IC50 (TNF release; [1])	IC50 (NF-κB; [2])	IC50 (TNF release; [3])
O=C1CCOc2cc(S(=O)(=O)Nc3ccc(F)cc3Cl)c(Br)cc2N1 [BC19658]	> 10000 nM	> 10000 nM	–	–
Cc1ccc(NS(=O)(=O)c2cc3c(cc2Br)NC(=O)CCO3)cc1Cl [BC19659]	> 10000 nM	> 10000 nM	–	–
O=C1CCOc2cc(S(=O)(=O)Nc3ccc(F)cc3)c(Br)cc2N1 [BC19660]	> 10000 nM	> 10000 nM	–	–
Cc1ccc(NS(=O)(=O)c2cc3c(cc2Br)NC(=O)CCO3)cc1 [BC19661]	> 10000 nM	> 10000 nM	–	–
CN1CCN(C(=O)C2CCc3nc(-c4ccc(F)cc4)c(-c4ccc(F)cc4)nc3C2)CC1 (stereo not drawn) [BC19663]	100 to 1000 nM	> 10000 nM	–	–
OCCCn1c(-c2ccc3nc(-c4ccc(F)cc4)c(-c4ccc(F)cc4)nc3c2)n[nH]c1=S [BC19664]	100 to 1000 nM	100 to 1000 nM	–	–
OCCCn1cnnc1-c1ccc2nc(-c3ccc(F)cc3)c(-c3ccc(F)cc3)nc2c1 [BC19665]	< 100 nM	1000 to 10000 nM	–	–
CN1CCN(C(=O)c2cc3nc(-c4ccc(F)cc4)c(-c4ccc(F)cc4)nc3cn2)CC1 [BC19666]	100 to 1000 nM	> 10000 nM	–	–
Cn1oc(-c2ccc3nc(-c4ccc(F)cc4)c(-c4ccc(F)cc4)nc3c2)cc1=O [BC19667]	> 10000 nM	> 10000 nM	–	–
C/N=C(\c1ccc2nc(-c3ccc(F)cc3)c(-c3ccc(F)cc3)nc2c1)N1CCN(C)CC1 [BC19668]	100 to 1000 nM	> 10000 nM	–	–
C[S+]([O-])c1sc(-c2ccc3ccccc3c2)nc1S(=O)(=O)c1ccc(Cl)cc1 (stereo not drawn) [BC19671]	1000 to 10000 nM	< 100 nM	–	–
CS(=O)(=O)c1sc(-c2ccc3ccccc3c2)nc1S(=O)(=O)c1ccc(Cl)cc1 [BC19672]	1000 to 10000 nM	100 to 1000 nM	–	–
CCC[S+]([O-])c1sc(-c2ccc3ccccc3c2)nc1S(=O)(=O)c1ccc(Cl)cc1 (stereo not drawn) [BC19673]	1000 to 10000 nM	> 10000 nM	–	–
CCCS(=O)(=O)c1sc(-c2ccc3ccccc3c2)nc1S(=O)(=O)c1ccc(Cl)cc1 [BC19674]	1000 to 10000 nM	> 10000 nM	–	–
CC(C)C[S+]([O-])c1sc(-c2ccc3ccccc3c2)nc1S(=O)(=O)c1ccc(Cl)cc1 (stereo not drawn) [BC19675]	1000 to 10000 nM	1000 to 10000 nM	–	–
O=S(=O)(CC1CC1)c1sc(-c2ccc3ccccc3c2)nc1S(=O)(=O)c1ccc(Cl)cc1 [BC19676]	1000 to 10000 nM	> 10000 nM	–	–
COCC[S+]([O-])c1sc(-c2ccc3ccccc3c2)nc1S(=O)(=O)c1ccc(Cl)cc1 (stereo not drawn) [BC19677]	1000 to 10000 nM	1000 to 10000 nM	–	–
COCCS(=O)(=O)c1sc(-c2ccc3ccccc3c2)nc1S(=O)(=O)c1ccc(Cl)cc1 [BC19678]	1000 to 10000 nM	1000 to 10000 nM	–	–
COCC[S+]([O-])c1sc(-c2cccnc2)nc1S(=O)(=O)c1ccc(Cl)cc1 (stereo not drawn) [BC19679]	1000 to 10000 nM	100 to 1000 nM	–	–

Compound	IC50 (NF-κB; LPS-stimulated)	IC50 (TNF release; [1])	IC50 (NF-κB; [2])	IC50 (TNF release; [3])
CCCSc1snc(-c2ccc(F)cc2)c1S(=O)(=O)c1ccc(Cl)cc1 [BC19680]	> 10000 nM	> 10000 nM	–	–
CCC[S+]([O-])c1snc(-c2ccc(F)cc2)c1S(=O)(=O)c1ccc(Cl)cc1 (stereo not drawn) [BC19681]	100 to 1000 nM	< 100 nM	–	–
CCCS(=O)(=O)c1snc(-c2ccc(F)cc2)c1S(=O)(=O)c1ccc(Cl)cc1 [BC19682]	100 to 1000 nM	< 100 nM	–	–
O=C1CCOc2c(cc(Br)cc2S(=O)(=O)Nc2ccc(Cl)cc2)N1 [BC19685]	< 100 nM	1000 to 10000 nM	–	–
CCc1ccc(NS(=O)(=O)c2cc(Br)cc3c2OCCC(=O)N3)cc1 [BC19686]	< 100 nM	> 10000 nM	–	–
CC(C)c1ccc(NS(=O)(=O)c2cc(Br)cc3c2OCCC(=O)N3)cc1 [BC19687]	< 100 nM	> 10000 nM	–	–
COc1ccc(NS(=O)(=O)c2cc(Br)cc3c2OCCC(=O)N3)cc1Cl [BC19688]	> 10000 nM	> 10000 nM	–	–
O=C1CCOc2cc(S(=O)(=O)Nc3ccccc3)c(Br)cc2N1 [BC19689]	> 10000 nM	1000 to 10000 nM	–	–
CCc1ccc(NS(=O)(=O)c2cc3c(cc2Br)NC(=O)CCO3)cc1 [BC19690]	> 10000 nM	> 10000 nM	–	–
COc1ccc(NS(=O)(=O)c2cc3c(cc2Br)NC(=O)CCO3)cc1 [BC19692]	> 10000 nM	> 10000 nM	–	–
O=C1CCOc2cc(S(=O)(=O)Nc3ccc(F)cc3F)c(Br)cc2N1 [BC19693]	> 10000 nM	> 10000 nM	–	–
COc1ccc(NS(=O)(=O)c2cc3c(cc2Br)NC(=O)CCO3)cc1Cl [BC19694]	> 10000 nM	> 10000 nM	–	–
N#Cc1ccc(NS(=O)(=O)c2cc3c(cc2Br)NC(=O)CCO3)cc1 [BC19695]	> 10000 nM	1000 to 10000 nM	–	–
CC1Oc2cc(S(=O)(=O)Nc3ccc(Cl)cc3)c(Cl)cc2NC1=O (stereo not drawn) [BC19696]	–	–	100 to 1000 nM	> 10000 nM
CC1Oc2c(cc(Cl)cc2S(=O)(=O)Nc2ccc(Cl)cc2)NC1=O (stereo not drawn) [BC19697]	–	–	< 100 nM	> 10000 nM
CC1Oc2cc(S(=O)(=O)Nc3ccc(F)c(F)c3)c(Cl)cc2NC1=O (stereo not drawn) [BC19698]	–	–	< 100 nM	> 10000 nM
CC1Oc2c(cc(Cl)cc2S(=O)(=O)Nc2ccc(F)c(F)c2)NC1=O (stereo not drawn) [BC19699]	–	–	< 100 nM	> 10000 nM
Cc1ccc(NS(=O)(=O)c2cc3c(cc2Cl)NC(=O)C(C)O3)cc1F (stereo not drawn) [BC19700]	–	–	< 100 nM	> 10000 nM

The next lines start with the values.

IC50 (NF-κB; LPS-stimulated)	IC50 (TNF release; [1])	IC50 (NF-κB; [2])	IC50 (TNF release; [3])	Compound
–	–	< 100 nM	> 10000 nM	Cc1ccc(NS(=O)(=O)c2cc(Cl)cc3c2OC(C)C(=O)N3)cc1F (stereo not drawn) [BC19701]
–	–	< 100 nM	> 10000 nM	CCc1ccc(NS(=O)(=O)c2cc3c(cc2Cl)NC(=O)C(C)O3)cc1 (stereo not drawn) [BC19702]
–	–	< 100 nM	> 10000 nM	CCc1ccc(NS(=O)(=O)c2cc(Cl)cc3c2OC(C)C(=O)N3)cc1 (stereo not drawn) [BC19703]
–	–	< 100 nM	> 10000 nM	CC1Oc2c(cc(Cl)cc2S(=O)(=O)Nc2ccc(C(C)C)cc2)NC1=O (stereo not drawn) [BC19705]
–	–	< 100 nM	> 10000 nM	COc1ccc(NS(=O)(=O)c2cc3c(cc2Cl)NC(=O)C(C)O3)cc1 (stereo not drawn) [BC19706]
–	–	< 100 nM	> 10000 nM	COc1ccc(NS(=O)(=O)c2cc(Cl)cc3c2OC(C)C(=O)N3)cc1 (stereo not drawn) [BC19707]
–	–	< 100 nM	> 10000 nM	Cc1ccc(NS(=O)(=O)c2cc3c(cc2Cl)NC(=O)C(C)O3)cc1Cl (stereo not drawn) [BC19708]
–	–	< 100 nM	> 10000 nM	CC1Oc2cc(S(=O)(=O)Nc3ccc(F)cc3F)c(Cl)cc2NC1=O (stereo not drawn) [BC19709]
–	–	< 100 nM	> 10000 nM	CC1Oc2c(cc(Cl)cc2S(=O)(=O)Nc2ccc(F)cc2F)NC1=O (stereo not drawn) [BC19710]
–	–	< 100 nM	> 10000 nM	CCc1cccc(NS(=O)(=O)c2cc3c(cc2Cl)NC(=O)C(C)O3)c1 (stereo not drawn) [BC19711]
–	–	< 100 nM	> 10000 nM	CCc1cccc(NS(=O)(=O)c2cc(Cl)cc3c2OC(C)C(=O)N3)c1 (stereo not drawn) [BC19712]
–	–	100 to 1000 nM	1000 to 10000 nM	CC1Oc2cc(S(=O)(=O)Nc3cccc(F)c3)c(Cl)cc2NC1=O (stereo not drawn) [BC19713]
–	–	< 100 nM	1000 to 10000 nM	CC1Oc2c(cc(Cl)cc2S(=O)(=O)Nc2cccc(F)c2)NC1=O (stereo not drawn) [BC19714]
–	–	< 100 nM	1000 to 10000 nM	CC1Oc2cc(S(=O)(=O)Nc3cccc(Cl)c3)c(Cl)cc2NC1=O (stereo not drawn) [BC19715]
–	–	< 100 nM	1000 to 10000 nM	CC1Oc2c(cc(Cl)cc2S(=O)(=O)Nc2cccc(Cl)c2)NC1=O (stereo not drawn) [BC19716]
–	–	< 100 nM	> 10000 nM	Cc1ccc(NS(=O)(=O)c2cc3c(cc2Cl)NC(=O)C(C)O3)cc1 (stereo not drawn) [BC19717]

IC50 (NF-κB; LPS-stimulated)	IC50 (TNF release; [1])	IC50 (NF-κB; [2])	IC50 (TNF release; [3])	Compound
–	–	< 100 nM	1000 to 10000 nM	Cc1ccc(NS(=O)(=O)c2cc(Cl)cc3c2OC(C)C(=O)N3)cc1 (stereo not drawn) [BC19718]
–	–	100 to 1000 nM	> 10000 nM	CC1Oc2cc(S(=O)(=O)Nc3ccc(F)cc3Cl)c(Cl)cc2NC1=O (stereo not drawn) [BC19719]
–	–	< 100 nM	> 10000 nM	CC1Oc2c(cc(Cl)cc2S(=O)(=O)Nc2ccc(F)cc2Cl)NC1=O (stereo not drawn) [BC19720]
–	–	< 100 nM	1000 to 10000 nM	CC1Oc2cc(S(=O)(=O)Nc3ccc(F)cc3)c(Cl)cc2NC1=O (stereo not drawn) [BC19721]
–	–	< 100 nM	1000 to 10000 nM	CC1Oc2c(cc(Cl)cc2S(=O)(=O)Nc2ccc(F)cc2)NC1=O (stereo not drawn) [BC19722]
100 to 1000 nM	> 10000 nM	–	–	CN1CCN(C(=O)C2Cc3nc(-c4ccc(F)cc4)c(-c4ccc(F)cc4)nc3C2)CC1 [BC19723]
1000 to 10000 nM	1000 to 10000 nM	–	–	CCC[S+]([O-])c1sc(-c2cccnc2)nc1S(=O)(=O)c1ccc(Cl)cc1 (stereo not drawn) [BC19724]
> 10000 nM	> 10000 nM	–	–	CC(C)[S+]([O-])c1sc(-c2cccnc2)nc1S(=O)(=O)c1ccc(Cl)cc1 (stereo not drawn) [BC19725]
> 10000 nM	> 10000 nM	–	–	CC(C)Sc1snc(-c2ccc(F)cc2)c1S(=O)(=O)c1ccc(Cl)cc1 [BC19726]
1000 to 10000 nM	1000 to 10000 nM	–	–	CC(C)[S+]([O-])c1snc(-c2ccc(F)cc2)c1S(=O)(=O)c1ccc(Cl)cc1 (stereo not drawn) [BC19727]
> 10000 nM	1000 to 10000 nM	–	–	CC(C)S(=O)(=O)c1snc(-c2ccc(F)cc2)c1S(=O)(=O)c1ccc(Cl)cc1 [BC19728]
–	–	100 to 1000 nM	> 10000 nM	CC1Oc2cc(S(=O)(=O)Nc3ccc(C#N)cc3)c(Cl)cc2NC1=O (stereo not drawn) [BC19729]
–	–	< 100 nM	> 10000 nM	CC1Oc2c(cc(Cl)cc2S(=O)(=O)Nc2ccc(C#N)cc2)NC1=O (stereo not drawn) [BC19730]
–	–	100 to 1000 nM	> 10000 nM	CCC1Oc2cc(S(=O)(=O)Nc3ccc(F)cc3)c(Cl)cc2NC1=O (stereo not drawn) [BC19731]
–	–	< 100 nM	1000 to 10000 nM	CCC1Oc2c(cc(Cl)cc2S(=O)(=O)Nc2ccc(F)cc2)NC1=O (stereo not drawn) [BC19732]
–	–	< 100 nM	> 10000 nM	CCC1Oc2cc(S(=O)(=O)Nc3ccc(OC(F)(F)F)cc3)c(Cl)cc2NC1=O (stereo not drawn) [BC19733]
